For orientation: EC50 means the concentration needed to bring the measured effect to its halfway point. Read a high EC50 as weaker potency.

Experimental findings from patent US12617783B2, “Heterocyclic GLP-1R agonists” (BIOMEA FUSION, INC., priority 2024, dated 2026) are described below.

The target of the assay is T1, human GLP-1R (Homo sapiens, UniProt P43220).
T1 construct: host or cells: HEK293
T1 sequence (P43220 24-463): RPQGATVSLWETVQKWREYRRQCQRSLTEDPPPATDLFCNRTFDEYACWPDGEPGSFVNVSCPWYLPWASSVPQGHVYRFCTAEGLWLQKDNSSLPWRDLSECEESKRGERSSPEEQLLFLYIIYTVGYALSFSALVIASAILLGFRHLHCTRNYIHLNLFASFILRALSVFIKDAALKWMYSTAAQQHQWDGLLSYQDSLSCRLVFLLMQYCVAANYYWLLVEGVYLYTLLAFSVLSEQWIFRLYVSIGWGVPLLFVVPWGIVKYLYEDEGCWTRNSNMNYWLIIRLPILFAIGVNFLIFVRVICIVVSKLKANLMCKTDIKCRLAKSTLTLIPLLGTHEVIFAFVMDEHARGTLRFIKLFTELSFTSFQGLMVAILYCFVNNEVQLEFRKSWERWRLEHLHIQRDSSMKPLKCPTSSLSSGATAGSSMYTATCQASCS
Briefly: GLP-1R cAMP assay (Example B1b, HTRF, 30 min at 37°). The class given is cell-based. Conditions: cAMP accumulation in HEK293 expressing human GLP-1R, no BETP, 30 min at 37° (Method B1b), Table 1. Here is the method: Assay was carried out with HEK293 expressing human GLP-1R using HTRF assay, developed by Wuxi Apptec. The method is a competitive assay between native cAMP produced by the cells and exogenous cAMP labeled with a proprietary dye d2. The tracer binding is visualized by a mAb anti-cAMP labeled with Cryptate. The signal (i.e. energy transfer) is inversely proportional to the concentration of CAMP in either standard or experimental sample. Compounds were tested in the absence of BETP. Ten microliter of cell suspension in assay buffer (5 mM HEPES, 500 μM IBMX, 0.1% BSA) were added to each well (1,000 cells per well) in a low volume 384-well plate for the assay. Serially diluted compounds were added in 100 nL volume to duplicate wells, by Labcyte Echo. GLP-1 (7-37) was used as positive control. Assay plate was incubated for 30 minutes at 37°. Stock of cAMP Detection Solution was prepared by mixing 38 parts of cAMP lysis buffer, 1 part of cAMP-D2, 1 part of anti-cAMP cryptate reagent (Cisbio #62AM4PEJ). Ten microliter of the cAMP Detection Solution was added to each well, and the assay plate was incubated for 1 hour at room temperature in the dark. Plates were read on Envision plate reader. The data were analyzed by ScreenUltra in Dotmatics, with % activation expressed using following formula: (Signal ratio […]*10000−negative control)/(postive control−negative control)*100. Dose response curves were plotted and EC50 values calculated by non-linear regression using 4-parameter fit. The potency (EC50) values for cAMP accumulation in HEK293 cells are reported in the Table 1 below (for compounds ID 610-708).
In general terms: Cyclic AMP is a second messenger, typically raised through Gs and lowered through Gi signalling.
Molecule `Cc1cc(-n2nc3c(c2-n2ccn(-c4ccc5c(cnn5C)c4F)c2=O)[C@@H]2COC[C@H](C3)N2C(=O)c2cc3cc([C@@H]4CCOC(C)(C)C4)cc(F)c3n2[C@@]2(c3noc(=O)[nH]3)C[C@@H]2C)cc(C)c1F` [Compound 706, 3-((1S,2S)-1-(5-((R)-2,2-dimethyltetrahydro-2H-pyran-4-yl)-7-fluoro-2-((4R,8S)-3-(3-(4-fluoro-1-methyl-1H-indazol-5-yl)-2-oxo-2,3-dihydro-1H-imidazol-1-yl)-2-(4-fluoro-3,5-dimethylphenyl)-2,4,5,7,8,9-hexahydro-4,8-epiminooxocino [5,4-c]pyrazole-10-carbonyl)-1H-indol-1-yl)-2-methylcyclopropyl)-1,2,4-oxadiazol-5 (4H)-one] showed an EC50 of 0.059 µM.

Regarding `Cc1cc(-n2nc3c(c2-n2ccn(-c4ccc5c(cnn5C)c4F)c2=O)[C@@H]2CCC[C@H](C3)N2C(=O)c2cc3cc([C@H]4CCOC(C)(C)C4)cc(F)c3n2[C@@]2(c3noc(=O)[nH]3)C[C@@H]2C)cc(C)c1F` [Compound 707, 3-((1S,2S)-1-(5-((S)-2,2-dimethyltetrahydro-2H-pyran-4-yl)-7-fluoro-2-((4S,8R)-3-(3-(4-fluoro-1-methyl-1H-indazol-5-yl)-2-oxo-2,3-dihydro-1H-imidazol-1-yl)-2-(4-fluoro-3,5-dimethylphenyl)-4,5,6,7,8,9-hexahydro-2H-4,8-epiminocycloocta [c]pyrazole-10-carbonyl)-1H-indol-1-yl)-2-methylcyclopropyl)-1,2,4-oxadiazol-5 (4H)-one], the midpoint of the response, the EC50, lay at 0.0025 µM.

Consider `Cc1cc(-n2nc3c(c2-n2ccn(-c4ccc5c(cnn5C)c4F)c2=O)[C@@H]2CC[C@H](C3)N2C(=O)c2c(F)c3cc(C4CCOC(C)(C)C4)ccc3n2[C@@]2(c3noc(=O)[nH]3)C[C@@H]2C)cc(C)c1F` (stereo partly drawn) [Compound 708, 3-[(1S,2S)-1-[5-(2,2-dimethyltetrahydropyran-4-yl)-3-fluoro-2-[(1S,8R)-4-(4-fluoro-3,5-dimethyl-phenyl)-3-[3-(4-fluoro-1-methyl-indazol-5-yl)-2-oxo-imidazol-1-yl]-4,5,11-triazatricyclo[6.2.1.02,6]undeca-2,5-diene-11-carbonyl]indol-1-yl]-2-methyl-cyclopropyl]-4H-1,2,4-oxadiazol-5-one], for which a half-maximal response (EC50) required 0.0085 µM.

In the case of `Cc1cc(-n2nc3c(c2-n2ccn(-c4ccc5c(c4)N(C)C(=O)C5=O)c2=O)[C@@H]2CCC[C@H](C3)N2C(=O)c2cc3cc([C@H]4CCOC(C)(C)C4)ccc3n2[C@@]2(c3noc(=O)[nH]3)C[C@@H]2C)cc(C)c1F` [Compound 710, 6-(3-((4S,8R)-10-(5-((S)-2,2-dimethyltetrahydro-2H-pyran-4-yl)-1-((1S,2S)-2-methyl-1-(5-oxo-4,5-dihydro-1,2,4-oxadiazol-3-yl)cyclopropyl)-1H-indole-2-carbonyl)-2-(4-fluoro-3,5-dimethylphenyl)-4,5,6,7,8,9-hexahydro-2H-4,8-epiminocycloocta [c]pyrazol-3-yl)-2-oxo-2,3-dihydro-1H-imidazol-1-yl)-1-methylindoline-2,3-dione], the EC50 amounted to 0.004 µM.

Turning to `Cc1cc(-n2nc3c(c2-n2ccn(-c4ccc5c(cnn5C)c4F)c2=O)[C@@H]2CC[C@H](C3)N2C(=O)c2cc3cc([C@H]4CCOC(C)(C)C4)cc(F)c3n2[C@@]2(c3noc(=O)[nH]3)C[C@@H]2C)cc(C)c1F` [Compound 711, 3-[(1S,2S)-1-[5-[(4S)-2,2-dimethyltetrahydropyran-4-yl]-7-fluoro-2-[(1S,8R)-4-(4-fluoro-3,5-dimethyl-phenyl)-3-[3-(4-fluoro-1-methyl-indazol-5-yl)-2-oxo-imidazol-1-yl]-4,5,11-triazatricyclo[6.2.1.02,6]undeca-2,5-diene-11-carbonyl]indol-1-yl]-2-methyl-cyclopropyl]-4H-1,2,4-oxadiazol-5-one], it took 0.006 µM to reach a half-maximal effect (EC50). Molecule `Cc1cc(-n2nc3c(c2-n2ccn(-c4ccc5c(c4)C4(CC4)C(=O)N5C)c2=O)[C@@H]2CCC[C@H](C3)N2C(=O)c2cc3cc([C@H]4CCOC(C)(C)C4)ccc3n2[C@@]2(c3noc(=O)[nH]3)C[C@@H]2C)cc(C)c1F` [Compound 714, 3-((1S,2S)-1-(5-((S)-2,2-dimethyltetrahydro-2H-pyran-4-yl)-2-((4S,8R)-2-(4-fluoro-3,5-dimethylphenyl)-3-(3-(1′-methyl-2′-oxospiro[cyclopropane-1,3′-indolin]-5′-yl)-2-oxo-2,3-dihydro-1H-imidazol-1-yl)-4,5,6,7,8,9-hexahydro-2H-[4,8]epiminocycloocta [c]pyrazole-10-carbonyl)-1H-indol-1-yl)-2-methylcyclopropyl)-1,2,4-oxadiazol-5 (4H)-one] yielded an EC50 of 0.002 µM. Molecule `Cc1cc(-n2nc3c(c2-n2ccn(-c4ccc5c(cnn5C5CC5)c4F)c2=O)[C@@H]2COC[C@H](C3)N2C(=O)c2cc3cc(C4CCOCC4)ccc3n2[C@@]2(c3noc(=O)[nH]3)C[C@@H]2C)cc(C)c1F` [Compound 715, 3-((1S,2S)-1-(2-((4R,8S)-3-(3-(1-cyclopropyl-4-fluoro-1H-indazol-5-yl)-2-oxo-2,3-dihydro-1H-imidazol-1-yl)-2-(4-fluoro-3,5-dimethylphenyl)-2,4,5,7,8,9-hexahydro-4,8-epiminooxocino [5,4-c]pyrazole-10-carbonyl)-5-(tetrahydro-2H-pyran-4-yl)-1H-indol-1-yl)-2-methylcyclopropyl)-1,2,4-oxadiazol-5 (4H)-one] gave an EC50 of 0.004 µM.

Consider `Cc1cc(-n2nc3c(c2-n2ccn(-c4ccc5c(cnn5C)c4F)c2=O)[C@@H]2CC[C@H](C3)N2C(=O)c2cc3cc(C4CCOC(C)(C)C4)c(F)cc3n2[C@@]2(c3noc(=O)[nH]3)C[C@@H]2C)cc(C)c1F` (stereo partly drawn) [Compound 716, 3-[(1S,2S)-1-[5-(2,2-dimethyltetrahydropyran-4-yl)-6-fluoro-2-[(1S,8R)-4-(4-fluoro-3,5-dimethyl-phenyl)-3-[3-(4-fluoro-1-methyl-indazol-5-yl)-2-oxo-imidazol-1-yl]-4,5,11-triazatricyclo[6.2.1.02,6]undeca-2,5-diene-11-carbonyl]indol-1-yl]-2-methyl-cyclopropyl]-4H-1,2,4-oxadiazol-5-one], for which the EC50 is 0.005 µM.
